Laboratory results reported in patent US20050215607A1, “Drug composition for prevention or inhibition of advance of diabetic complication” (priority 2002, published 2005).
Structures can show the parent of a compound that is named as a salt.

Tests used:
[1] = tested on: type II diabetic patients; experiment: Clinical study in type II diabetic patients; format: in vivo, human; conditions: for Change in HbA1C value, mean value: three times a day just before meals; for Change in 1 hour value of postprandial plasma glucose (PPG), mean value / Change in 2 hour value of postprandial plasma glucose (PPG), mean value / Change in early morning fasting plasma glucose (FPG), mean: at the final evaluation
Method: Using the pharmaceutical composition described in Example 1, a clinical study was conducted in type II diabetic patients under the following conditions.
Test drug and Mode of administration: Every patient orally administered either of a combination selected from the following combination groups (one tablet from each) three times a day just before meals (within 5 minutes before starting meal): • The present invention group: (1)+(4) • Positive control group: (2)+(3) • Positive control group: (3)+(4) • (1) a tablet comprising 10 mg of mitiglinide calcium salt hydrate; • (2) a tablet comprising 0.2 mg of voglibose (chemical name: (+)-1L-[1(OH),2,4,5/3]-5-[2-hydroxy-1-(hydroxymethyl)-ethyl]amino-1-C-(hydroxymethyl)-1,2,3,4-cyclohexaneterol); • (3) a placebo tablet of mitiglinide calcium salt hydrate not containing any active ingredient; and • (4) a placebo tablet of voglibose not containing any active ingredient. • Treatment period: 12 weeks
Observation item: The following items were measured before administration, at a certain fixed time after the start of administration and at the completion of administration, and their changes were calculated, or the frequency of adverse drug reactions was calculated, and then evaluated.

[2] = Required single dose to reduce HbA1C value; format: in vivo; conditions: as a single dose
[3] = Disposition (half-life) of mitiglinide; conditions: human, in vivo, oral; single dose of 5 mg and more
[4] = tested on: healthy male adults; experiment: Clinical study on administration timing; format: in vivo, human
Method: Administration timing before taking a meal was evaluated in healthy male adults. Used test drugs were a tablet comprising 10 mg of mitiglinide calcium salt hydrate and a placebo tablet. The tablet comprising 10 mg of mitiglinide calcium salt hydrate was administered at 0.5 min, 5 min, 10 min or 30 min before starting meal (Positive group), while the placebo tablet was administered at 0.5 min before starting meal. After administration, blood glucose levels were measured at starting meal and evaluated.

[5] = in comparison with voglibose and placebo

For `OCC(CO)N[C@H]1C[C@](O)(CO)[C@@H](O)[C@H](O)[C@H]1O` [voglibose, (+)-1L-[1(OH),2,4,5/3]-5-[2-hydroxy-1-(hydroxymethyl)-ethyl]amino-1-C-(hydroxymethyl)-1,2,3,4-cyclohexaneterol, reference compound], the “Change in HbA1C value, mean value” ([1]; 4 weeks) was −0.14%, the “Change in HbA1C value, mean value” ([1]; 8 weeks) was −0.14% and the “Change in HbA1C value, mean value” ([1]; 12 weeks) was −0.11%. The “Change in 1 hour value of postprandial plasma glucose (PPG), mean value” ([1]; treatment period 12 weeks) was -24.8 mg/dL, the “Change in 2 hour value of postprandial plasma glucose (PPG), mean value” ([1]; treatment period 12 weeks) was -5.1 mg/dL and the “Change in early morning fasting plasma glucose (FPG), mean” value ([1]; treatment period 12 weeks) was 0.5 mg/dL. For the same compound, the “HbA1C value (result in words)” value ([1]; in comparison with placebo) was “significantly lowered”, the “Change in HbA1C value, mean value” ([1]; the final evaluation) was −0.11% and the “Frequency of adverse drug reactions: gastrointestinal disorder” value ([1]; treatment period 12 weeks) was 24.5%. For the same compound, the “Frequency of adverse drug reactions: hypoglycemic symptoms” value ([1]; treatment period 12 weeks) was 4.5%.

With `O=C(O)[C@H](CC(=O)N1C[C@H]2CCCC[C@H]2C1)Cc1ccccc1` [mitiglinide] the “required dosage to reduce HbA1C value significantly” value [2] was ≥ 5 mg and the half-life [3] was ~1.5 h.

In the case of `O=C(O)[C@H](CC(=O)N1C[C@H]2CCCC[C@H]2C1)Cc1ccccc1` [Mitiglinide calcium salt hydrate, (+)-monocalcium bis[(2S, 3a, 7a-cis)-α-benzylhexahydro-γ-oxo-2-isoindolinebutyrate] dihydrate], the “Blood glucose level at starting meal, mean” value (“Blood glucose level … mean” below) ([4]; 10 mg tablet administered 0.5 min before starting meal) was 87.0 mg/dL, the “Blood glucose level … mean” value ([4]; 10 mg tablet administered 5 min before starting meal) was 83.8 mg/dL and the “Blood glucose level … mean” value ([4]; 10 mg tablet administered 10 min before starting meal) was 84.2 mg/dL. For the same compound, the “Blood glucose level … mean” value ([4]; 10 mg tablet administered 30 min before starting meal) was 55.7 mg/dL, the “blood glucose level at starting meal (result in words)” value ([4]; administered at 30 minutes before starting meal) was “notably declined” and the “blood glucose level at starting meal (result in words)” value ([4]; administered within 10 minutes before starting meal) was “able to maintain good blood glucose level”. For the same compound, the “Change in HbA1C value, mean value” ([1]; 4 weeks) was −0.30%, the “Change in HbA1C value, mean value” ([1]; 8 weeks) was −0.46% and the “Change in HbA1C value, mean value” ([1]; 12 weeks) was −0.46%. The “HbA1C value (result in words)” value ([1]; after 4 weeks after the start of administration, in comparison with voglibose and placebo) was “significantly lowered”, the “Change in 1 hour value of postprandial plasma glucose (PPG), mean value” ([1]; treatment period 12 weeks) was -53.1 mg/dL and the “Change in 2 hour value of postprandial plasma glucose (PPG), mean value” ([1]; treatment period 12 weeks) was -50.1 mg/dL. For the same compound, the “Change in early morning fasting plasma glucose (FPG), mean” value ([1]; treatment period 12 weeks) was -8.0 mg/dL, the “frequencies of hypoglycemic symptoms and gastrointestinal disorders (result in words)” value ([1]; human, in vivo) was “decreased” and the “Frequency of adverse drug reactions: gastrointestinal disorder” value ([1]; human, in vivo, 12 weeks) was 17.6%. For the same compound, the “Frequency of adverse drug reactions: hypoglycemic symptoms” value ([1]; human, in vivo, 12 weeks) was 2.0%, the “1 hour and 2 hour values of postprandial plasma glucose (PPG) (result in words)” value [1, 5] was “significantly lowered” and the “early morning fasting plasma glucose (FPG) (result in words)” value [1, 5] was “significantly lowered”. For the same compound, the “Change in HbA1C value, mean value” ([1]; the final evaluation) was −0.44%.
